Results as given in patent publication US6162798A, “Inhibitor of atherosclerotic intimal thickening” (priority 1991, dated 2000).

Key:
[1] = tested on: aortic medial smooth muscle cells (M-SMC); assay: Inhibitory effects on migration of aortic medial smooth muscle cells (Boyden's chamber); format: cell-based, Sprague Dawley male rat; settings: migration of rat M-SMC, drug concentration 10^-5 M, 4 hours
Procedure: The inhibitory effects of the compounds of the present invention on migration of M-SMC were measured by the following methods. Arterial medial slices of the thoracic of aorta of a Sprague Dawley male rat were cultured by using a medium of Dulbecco's Modified Eagle (DME) containing 10% fetal bovine serum (FBS) at 37° C. in an atmosphere comprising 95% of air and 5% of carbon dioxide for 3 or 4 weeks. The aortic medial smooth muscle cells grown from the arterial medial slices were subcultured by 1:2 split of cell density for stable subculture. After the three or four times subculture, the cells in the state of confluency were subjected to trypsinized and then suspended in the above medium at a cell density of 500,000 cells per ml. To the cell suspension, a test compound dissolved in dimethylsulfoxide (DMSO) was added so that the final DMSO concentration would be 0.2%, and the cell suspension was pre-incubated at 37° C. for 30 minutes. As a control, DMSO was added alone at the same concentration. In the lower compartment of Boyden's chamber partitioned with a nitrocellulose membrane, 10 ng/ml of a platelet-derived growth factor (PDGF) or DME medium containing a 10% SMC-conditioned DME medium (SMC-CM) obtained from 48 hours conditioning was filled as a migration factor. In the upper compartment thereof, 1 ml of the cell suspension was loaded, and incubation was conducted at 37° C. for 4 hours in a culture condition. As the blank, the DME medium without migration factor was filled in the lower compartment. After 4 hour incubation, the cells adhered to the upper side of the nitrocellulose membrane were removed, and the cells migrated to the lower side of the membrane were fixed and stained by Diff Quik. The number of migrated cells was counted in the 10 fields by a light microscope at 400 x HPF.

[2] = tested on: aortic intimal smooth muscle cells (I-SMC); assay: Inhibitory effects on proliferation of aortic intimal smooth muscle cells (cell count); format: cell-based, atherosclerotic Japanese white rabbit; settings: Oryctolagus cuniculus, fold increase of cell number second to fifth day, read-out: Inhibition (%) Intima; for inhibition at 10 µM: drug concentration 10^-5 M; for inhibition at 1 µM: drug concentration 10^-6 M
Procedure: (§1) The inhibitory effects of the compounds of the present invention on the proliferation of I-SMC and M-SMC were measured by the following methods. […] After twice or three times subculture of cells, the cells in the state of confluency were trypsinized and suspended in the above medium so that the cell density would be 20,000 cells/ml. Then, the 10,000 cells were seeded and cultured on a 24 well multi-well plate. After incubation for 6 hours, the medium was replaced by 0.5 ml of a control medium or a medium containing a test compound. At the same time, the number of cells initially attached to the plate was counted and taken as the initial cell number (I). The test compound was added to the medium as described in Example 1. As the control, DMSO was added alone so that the final concentration would be 0.2%. The medium change was carried out every 2 days, and on the first, second, third, fifth and seventh days, the cells were trypsinized and suspended in Isoton and counted cell number by a Coulter counter. The obtained results were represented by an average number of cells of three wells in each case, and the inhibition (%) of the fold increase of the cell number from the second day to the fifth day was calculated in accordance with the following formula.

[3] = tested on: aortic medial smooth muscle cells (M-SMC); assay: Inhibitory effects on proliferation of aortic medial smooth muscle cells (cell count); format: cell-based, healthy Japanese white rabbit; settings: Oryctolagus cuniculus, fold increase of cell number second to fifth day, read-out: Inhibition (%) Media; for inhibition at 10 µM: drug concentration 10^-5 M; for inhibition at 1 µM: drug concentration 10^-6 M
Procedure: as §1

[4] = tested on: aortic intimal smooth muscle cells (I-SMC); assay: Inhibitory effect on 3H-thymidine uptake in aortic intimal smooth muscle cells; format: cell-based, atherosclerotic Japanese white rabbit; settings: Oryctolagus cuniculus, 24 hours with compound, read-out: Inhibition (%) Intima; for inhibition at 10 µM: drug concentration 10^-5 M; for inhibition at 1 µM: drug concentration 10^-6 M
Procedure: (§2) The inhibitory effects of the compound of the present invention on ^3 H-thymidine uptake in I-SMC and M-SMC were measured by the following methods. M-SMC and I-SMC are obtained from aortic media of a healthy Japanese white rabbit and from aortic intima of an atherosclerotic Japanese white rabbit as mentioned in Example 2. After three or four times subculture, the cells in the state of confluency were trypsinized and suspended in a DME medium containing 10% of FBS and an antibiotic so that the cell density would be 40,000 cells/ml. The 10,000 cells were seeded to a 48 well multi-well plate. After 4 days culture, the medium was replaced by the control medium or the medium containing a test compound as used in Example 2, and culture was continued for 24 hours. Then, 1 μCi ([…]) of ^3 H-thymidine was added thereto, and culture was continued for 3 hours. The cells were washed three times with a phosphate buffered physiological saline (PBS) and treated with chilled 5% trichloroacetic acid (TCA). The insoluble-fraction was washed with chilled TCA and then dissolved in a 0.5N potassium hydroxide aqueous solution. The ^3 H radioactivity was measured by a liquid scintillation counter and the protein content was measured. […] The inhibition (%) was calculated in accordance with the following formula.

[5] = tested on: aortic medial smooth muscle cells (M-SMC); assay: Inhibitory effect on 3H-thymidine uptake in aortic medial smooth muscle cells; format: cell-based, healthy Japanese white rabbit; settings: Oryctolagus cuniculus, 24 hours with compound, read-out: Inhibition (%) Media; for inhibition at 10 µM: drug concentration 10^-5 M; for inhibition at 1 µM: drug concentration 10^-6 M
Procedure: as §2

leukemic cells (HL-60) = assay: Inhibitory effects against adhesion of leukemic cells (HL-60) induced by TPA; format: cell-based; settings: Homo sapiens, HL-60, TPA-induced, 48 hours pretreatment; for inhibition at 10 µM: drug concentration 10^-5 M
Procedure: The inhibitory effects of the compounds in the present invention on cell adhesion of HL-60 were measured by the following methods. HL-60 cells were cultured in a RPMI 1640 medium containing 10% of FBS and an antibiotic at 37° C. in an atmosphere comprising 95% of air and 5% of carbon dioxide and then seeded to a 6 well multi-well plate in an amount of 2 ml per well at a cell density of 1,000,000/ml. A test compound dissolved in DMSO was added so that the final DMSO concentration would be 0.2%, and incubation was carried out for 48 hours for pretreatment. Then, 500,000 cells were seeded to a 24 well multi-well plate, and 0.02 mM of phorbol myristate acetate (TPA) dissolved in ethanol, was added in an amount of 1/250 (v/v) of the culture medium, and then culture was continued for 12 hours. After that, the cells were washed with PBS and the cells attached to the well plates were scraped off by trypsinization and suspended in Isoton, and the number of cells were counted by a Coulter counter. A control test was carried out by adding DMSO alone.

[6] = tested on: J774 macrophages (J774-M.phi.); assay: Inhibitory effects against adhesion of J774 macrophages; format: cell-based; settings: Mus musculus, 48 hours pretreatment; for inhibition at 10 µM: drug concentration 10^-5 M; for inhibition at 1 µM: drug concentration 10^-6 M
Procedure: The inhibitory effects of the compounds in the present invention on cell adhesion of J774-M.phi. were measured by the following methods. […] Then, culture was continued with a control medium containing 0.2% of DMSO or with a medium containing a test compound for 48 hours as pretreatment. Then, the cells were scraped by means of a rubber policeman and suspended in the above medium. 200,000 cells were seeded to a 24 well multi-well plate., and cultured for 12 hours. After that, the cells attached to the well plates were scraped by a rubber policeman, and the number of cells was counted by a Coulter counter. The obtained results are represented by an average value of the number of cells in three wells at the time of the pretreatment, in each case, and the inhibition (%) on the adhesion was calculated in accordance with the following formula.

[7] = migration factor 10 ng/ml PDGF, read-out: Inhibition (%) PDGF
[8] = migration factor 10% SMC-conditioned medium, read-out: Inhibition (%) SMC-CM

| SMILES | inhibition at 10 µM [1, 7] [%] | inhibition at 10 µM [1, 8] [%] | inhibition at 10 µM [2] [%] | inhibition at 1 µM [2] [%] | inhibition at 10 µM [3] [%] | inhibition at 1 µM [3] [%] | inhibition at 10 µM [4] [%] | inhibition at 1 µM [4] [%] | inhibition at 10 µM [5] [%] | inhibition at 1 µM [5] [%] | inhibition at 10 µM (leukemic cells (HL-60)) [%] | inhibition at 1 µM (leukemic cells (HL-60); drug concentration 10^-6 M) [%] | inhibition at 0.1 µM (leukemic cells (HL-60); drug concentration 10^-7 M) [%] | inhibition at 10 µM [6] [%] | inhibition at 1 µM [6] [%] |
| --- | --- | --- | --- | --- | --- | --- | --- | --- | --- | --- | --- | --- | --- | --- | --- |
| Cc1nn(C)c2nc(C3CC3)c(/C=C/[C@@H]3C[C@@H](O)CC(=O)O3)c(-c3ccc(F)cc3)c12 (relative stereo) [Test compound 2, (E)-trans-6-(2'-[6"-cyclopropyl-1',3'-dimethyl-4'-(4'"-fluorophenyl)pyrazolo[3,4-b]pyridin-5"-yl]ethenyl)-4-hydroxy-3,4,5,6-tetrahydro-2H-pyran-2-one] | 98.2 | 32.8 | 98.2 | 84.6 | 86.5 | 4.7 | 91.5 | 11.7 | 88.4 | 36.4 | – | – | – | – | – |
| CCc1c(C)sc2nc(C3CC3)c(/C=C/[C@@H]3C[C@@H](O)CC(=O)O3)c(-c3ccc(F)cc3)c12 (relative stereo) [Test compound 3, (E)-trans-6-(2'-[2'-cyclopropyl-5'-ethyl-3'-(4'"-fluorophenyl)-6'-methylthieno[2,3-b]pyridin-3'-yl]ethenyl)-4-hydroxy-3,4,5,6-tetrahydro-2H-pyran-2-on] | 100 | 41.7 | 100 | 100 | 100 | 31.5 | 94.1 | 69.9 | 92.2 | 53.6 | 96.4 | 92.2 | 4.8 | 92.4 | 92.2 |
| CC[C@H](C)C(=O)O[C@H]1C[C@H](O)C=C2C=C[C@H](C)[C@H](CC[C@@H](O)C[C@@H](O)CC(=O)O)[C@H]21 [Pravastatin, reference compound] | 61.8 | 26.2 | 1.3 | 1.3 | -11.7 | 8.7 | -7.2 | -7 | -34.3 | 8.7 | -2.8 | – | – | 41.3 | 40 |
